± gives the expanded uncertainty stated by the source.
Conditions: Liquid; for speed of sound: non intrusive technique with two piezoelectric transducers based on the time of flight

With `[2H]C([2H])([2H])C(=O)C([2H])([2H])[2H]` [(D6)-2-propanone] as the compound, how does the mass density (313.21 K, 59100 kPa) read?
Its mass density is 906.07 ± 0.47 kg/m3.

What about the mass density (318.11 K, 100 kPa) of the same compound?
The mass density was 842.15 ± 0.22 kg/m3.

What about the mass density (318.11 K, 5000 kPa) of the same compound?
The mass density was 848.68 ± 0.23 kg/m3.

What about the mass density (318.11 K, 9920 kPa) of the same compound?
Its mass density is 854.81 ± 0.25 kg/m3.

And the mass density (318.11 K, 14840 kPa)?
Its mass density is 860.56 ± 0.27 kg/m3.

What about the mass density (318.11 K, 19760 kPa) of the same compound?
The mass density was 865.99 ± 0.29 kg/m3.

And the mass density (318.11 K, 24670 kPa)?
The mass density was 871.14 ± 0.31 kg/m3.

And the mass density (318.11 K, 29590 kPa)?
Its mass density is 876.06 ± 0.33 kg/m3.

What about the mass density (318.11 K, 34510 kPa) of the same compound?
The mass density was 880.71 ± 0.35 kg/m3.

What about the mass density (318.11 K, 39430 kPa) of the same compound?
The mass density was 885.18 ± 0.37 kg/m3.

And the mass density (318.11 K, 44340 kPa)?
Its mass density is 889.44 ± 0.4 kg/m3.

What about the mass density (318.11 K, 49260 kPa) of the same compound?
Its mass density is 893.55 ± 0.42 kg/m3.

What about the mass density (318.11 K, 54180 kPa) of the same compound?
The mass density was 897.49 ± 0.44 kg/m3.

What about the mass density (318.11 K, 59100 kPa) of the same compound?
Its mass density is 901.28 ± 0.47 kg/m3.

And the speed of sound (318.22 K, 100 kPa)?
Its speed of sound is 991.2 ± 4 m/s.

What about the speed of sound (318.22 K, 4980 kPa) of the same compound?
The speed of sound was 1022.9 ± 4.1 m/s.

What about the speed of sound (318.22 K, 10070 kPa) of the same compound?
Its speed of sound is 1053.8 ± 4.2 m/s.

What about the speed of sound (318.22 K, 19990 kPa) of the same compound?
The speed of sound was 1109.8 ± 4.5 m/s.

What about the speed of sound (318.22 K, 30040 kPa) of the same compound?
The speed of sound was 1161.1 ± 4.7 m/s.

What about the speed of sound (318.22 K, 40070 kPa) of the same compound?
Its speed of sound is 1207.9 ± 4.9 m/s.

What about the speed of sound (318.22 K, 50060 kPa) of the same compound?
The speed of sound was 1250.3 ± 5 m/s.

And the speed of sound (318.22 K, 60010 kPa)?
Its speed of sound is 1289.3 ± 5.2 m/s.

What about the speed of sound (318.22 K, 70120 kPa) of the same compound?
Its speed of sound is 1326.3 ± 5.3 m/s.

And the speed of sound (318.22 K, 80030 kPa)?
The speed of sound was 1360.3 ± 5.5 m/s.

And the speed of sound (318.22 K, 90090 kPa)?
Its speed of sound is 1393 ± 5.6 m/s.

What about the speed of sound (318.22 K, 100300 kPa) of the same compound?
The speed of sound was 1424.8 ± 5.7 m/s.

What about the speed of sound (318.22 K, 110120 kPa) of the same compound?
The speed of sound was 1453.2 ± 5.8 m/s.

And the speed of sound (318.22 K, 120030 kPa)?
Its speed of sound is 1481 ± 5.9 m/s.

What about the speed of sound (318.22 K, 129970 kPa) of the same compound?
The speed of sound was 1507.9 ± 6.1 m/s.

What about the speed of sound (318.22 K, 140110 kPa) of the same compound?
The speed of sound was 1534.2 ± 6.2 m/s.

And the speed of sound (318.22 K, 150060 kPa)?
Its speed of sound is 1558.7 ± 6.3 m/s.

And the speed of sound (318.22 K, 160060 kPa)?
The speed of sound was 1582.6 ± 6.4 m/s.

And the mass density (323.12 K, 100 kPa)?
Its mass density is 835.37 ± 0.21 kg/m3.

And the mass density (323.12 K, 5000 kPa)?
Its mass density is 842.13 ± 0.23 kg/m3.

What about the mass density (323.12 K, 9920 kPa) of the same compound?
The mass density was 848.49 ± 0.25 kg/m3.

What about the mass density (323.12 K, 14840 kPa) of the same compound?
Its mass density is 854.44 ± 0.27 kg/m3.

What about the mass density (323.12 K, 19760 kPa) of the same compound?
The mass density was 860.07 ± 0.29 kg/m3.

And the mass density (323.12 K, 24670 kPa)?
The mass density was 865.35 ± 0.31 kg/m3.

And the mass density (323.12 K, 29590 kPa)?
The mass density was 870.38 ± 0.33 kg/m3.

And the mass density (323.12 K, 34510 kPa)?
The mass density was 875.18 ± 0.35 kg/m3.

And the mass density (323.12 K, 39430 kPa)?
The mass density was 879.78 ± 0.37 kg/m3.

And the mass density (323.12 K, 44340 kPa)?
The mass density was 884.16 ± 0.4 kg/m3.

What about the mass density (323.12 K, 49260 kPa) of the same compound?
Its mass density is 888.38 ± 0.42 kg/m3.

And the mass density (323.12 K, 54180 kPa)?
Its mass density is 892.45 ± 0.44 kg/m3.

What about the mass density (323.12 K, 59100 kPa) of the same compound?
The mass density was 896.36 ± 0.46 kg/m3.

And the mass density (328 K, 100 kPa)?
The mass density was 828.68 ± 0.21 kg/m3.

And the mass density (328 K, 5000 kPa)?
Its mass density is 835.72 ± 0.23 kg/m3.

What about the mass density (328 K, 9920 kPa) of the same compound?
Its mass density is 842.33 ± 0.25 kg/m3.

And the mass density (328 K, 14840 kPa)?
The mass density was 848.48 ± 0.27 kg/m3.

And the mass density (328 K, 19760 kPa)?
The mass density was 854.24 ± 0.29 kg/m3.

What about the mass density (328 K, 24670 kPa) of the same compound?
The mass density was 859.71 ± 0.31 kg/m3.

And the mass density (328 K, 29590 kPa)?
Its mass density is 864.88 ± 0.33 kg/m3.

And the mass density (328 K, 34510 kPa)?
Its mass density is 869.82 ± 0.35 kg/m3.

And the mass density (328 K, 39430 kPa)?
Its mass density is 874.55 ± 0.37 kg/m3.

And the mass density (328 K, 44340 kPa)?
Its mass density is 879.05 ± 0.4 kg/m3.

What about the mass density (328 K, 49260 kPa) of the same compound?
The mass density was 883.39 ± 0.42 kg/m3.

And the mass density (328 K, 54180 kPa)?
Its mass density is 887.57 ± 0.44 kg/m3.

What about the mass density (328 K, 59100 kPa) of the same compound?
Its mass density is 891.6 ± 0.46 kg/m3.

And the speed of sound (328.68 K, 100 kPa)?
Its speed of sound is 941.9 ± 3.8 m/s.

What about the speed of sound (328.68 K, 5090 kPa) of the same compound?
Its speed of sound is 977.6 ± 3.9 m/s.

And the speed of sound (328.68 K, 10030 kPa)?
Its speed of sound is 1009.5 ± 4.1 m/s.

What about the speed of sound (328.68 K, 20070 kPa) of the same compound?
Its speed of sound is 1068.8 ± 4.3 m/s.

What about the speed of sound (328.68 K, 30010 kPa) of the same compound?
Its speed of sound is 1121.9 ± 4.5 m/s.

And the speed of sound (328.68 K, 40010 kPa)?
The speed of sound was 1171.1 ± 4.7 m/s.

What about the speed of sound (328.68 K, 50070 kPa) of the same compound?
Its speed of sound is 1215.9 ± 4.9 m/s.

And the speed of sound (328.68 K, 60000 kPa)?
Its speed of sound is 1256.7 ± 5 m/s.

What about the speed of sound (328.68 K, 70030 kPa) of the same compound?
Its speed of sound is 1294.8 ± 5.2 m/s.

And the speed of sound (328.68 K, 80090 kPa)?
The speed of sound was 1330.4 ± 5.3 m/s.

What about the speed of sound (328.68 K, 90100 kPa) of the same compound?
Its speed of sound is 1364 ± 5.5 m/s.

What about the speed of sound (328.68 K, 100060 kPa) of the same compound?
The speed of sound was 1396.1 ± 5.6 m/s.

What about the speed of sound (328.68 K, 110140 kPa) of the same compound?
Its speed of sound is 1426.4 ± 5.7 m/s.

What about the speed of sound (328.68 K, 120100 kPa) of the same compound?
The speed of sound was 1454.7 ± 5.8 m/s.

What about the speed of sound (328.68 K, 130000 kPa) of the same compound?
Its speed of sound is 1481.9 ± 6 m/s.

What about the speed of sound (328.68 K, 140020 kPa) of the same compound?
The speed of sound was 1508.4 ± 6.1 m/s.

And the speed of sound (328.68 K, 150040 kPa)?
Its speed of sound is 1533.8 ± 6.2 m/s.

And the speed of sound (328.68 K, 160100 kPa)?
Its speed of sound is 1557.9 ± 6.3 m/s.

And the mass density (332.91 K, 5000 kPa)?
Its mass density is 829.26 ± 0.23 kg/m3.

And the mass density (332.91 K, 9920 kPa)?
The mass density was 836.08 ± 0.25 kg/m3.

And the mass density (332.91 K, 14840 kPa)?
Its mass density is 842.42 ± 0.27 kg/m3.

What about the mass density (332.91 K, 19760 kPa) of the same compound?
The mass density was 848.36 ± 0.29 kg/m3.

What about the mass density (332.91 K, 24670 kPa) of the same compound?
Its mass density is 853.96 ± 0.31 kg/m3.

And the mass density (332.91 K, 29590 kPa)?
The mass density was 859.28 ± 0.33 kg/m3.

What about the mass density (332.91 K, 34510 kPa) of the same compound?
Its mass density is 864.37 ± 0.35 kg/m3.

What about the mass density (332.91 K, 39430 kPa) of the same compound?
Its mass density is 869.21 ± 0.37 kg/m3.

And the mass density (332.91 K, 44340 kPa)?
Its mass density is 873.86 ± 0.4 kg/m3.

And the mass density (332.91 K, 49260 kPa)?
Its mass density is 878.33 ± 0.42 kg/m3.

And the mass density (332.91 K, 54180 kPa)?
Its mass density is 882.64 ± 0.44 kg/m3.

What about the mass density (332.91 K, 59100 kPa) of the same compound?
Its mass density is 886.8 ± 0.46 kg/m3.

And the speed of sound (338.72 K, 100 kPa)?
Its speed of sound is 888.6 ± 3.6 m/s.

And the speed of sound (338.72 K, 5050 kPa)?
Its speed of sound is 927.2 ± 3.7 m/s.

What about the speed of sound (338.72 K, 10020 kPa) of the same compound?
The speed of sound was 962.5 ± 3.9 m/s.

And the speed of sound (338.72 K, 20030 kPa)?
Its speed of sound is 1025.1 ± 4.1 m/s.

What about the speed of sound (338.72 K, 30050 kPa) of the same compound?
Its speed of sound is 1081.4 ± 4.3 m/s.

What about the speed of sound (338.72 K, 40010 kPa) of the same compound?
Its speed of sound is 1132.6 ± 4.6 m/s.

What about the speed of sound (338.72 K, 49990 kPa) of the same compound?
The speed of sound was 1179.8 ± 4.7 m/s.

What about the speed of sound (338.72 K, 60050 kPa) of the same compound?
Its speed of sound is 1223.2 ± 4.9 m/s.

What about the speed of sound (338.72 K, 70040 kPa) of the same compound?
The speed of sound was 1262.8 ± 5.1 m/s.

And the speed of sound (338.72 K, 79970 kPa)?
Its speed of sound is 1299.3 ± 5.2 m/s.

What about the speed of sound (338.72 K, 90070 kPa) of the same compound?
Its speed of sound is 1334.7 ± 5.4 m/s.

And the speed of sound (338.72 K, 100040 kPa)?
The speed of sound was 1367.5 ± 5.5 m/s.

What about the speed of sound (338.72 K, 110020 kPa) of the same compound?
Its speed of sound is 1398.5 ± 5.6 m/s.

What about the speed of sound (338.72 K, 119960 kPa) of the same compound?
The speed of sound was 1428.5 ± 5.7 m/s.

What about the speed of sound (338.72 K, 130000 kPa) of the same compound?
The speed of sound was 1456.6 ± 5.9 m/s.

And the speed of sound (338.72 K, 140080 kPa)?
The speed of sound was 1484.3 ± 6 m/s.

What about the speed of sound (338.72 K, 150050 kPa) of the same compound?
Its speed of sound is 1510.5 ± 6.1 m/s.

And the speed of sound (338.72 K, 159910 kPa)?
The speed of sound was 1535.5 ± 6.2 m/s.

Reference: the NIST ThermoML archive (doi:10.1016/j.jct.2004.11.001)
